# Results from PubChem BioAssay (NCI).
#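 How tested: cells in 96-well plates exposed to compound for 48 hours at five concentrations. Definition used: TGI = concentration required for complete inhibition of growth.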
# Legend:
# Assay in all cases: NCI tumour cell line growth inhibition, 48 h
# A498 renal = test system: A498 renal
# HCT-116 colon = test system: HCT-116 colon
# HS 578T breast = test system: HS 578T breast
# NCI-H23 lung = test system: NCI-H23 lung
# PC-3 prostate = test system: PC-3 prostate
# SK-OV-3 ovarian = test system: SK-OV-3 ovarian
# SNB-19 CNS = test system: SNB-19 CNS
# SNB-75 CNS = test system: SNB-75 CNS
# UO-31 renal = test system: UO-31 renal
# UACC-62 melanoma = test system: UACC-62 melanoma
# SK-MEL-5 melanoma = test system: SK-MEL-5 melanoma
Compound,TGI (A498 renal),TGI (HCT-116 colon),TGI (HS 578T breast),TGI (NCI-H23 lung),TGI (PC-3 prostate),TGI (SK-OV-3 ovarian),TGI (SNB-19 CNS),TGI (SNB-75 CNS),TGI (UO-31 renal),TGI (UACC-62 melanoma),TGI (SK-MEL-5 melanoma)
Cc1ccc(C2(O)CSC(=NC34CC5CC(CC(C5)C3)C4)N2C(P(=O)(O)O)P(=O)(O)O)cc1 (stereo not given),> 100 µM,67.5 µM,> 100 µM,> 100 µM,> 100 µM,> 100 µM,> 100 µM,> 100 µM,> 100 µM,,
C#CCn1c(=O)c(I)cn(/C(=C/C(=O)OCC)C(=O)OCC)c1=O,33.7 µM,3.59 µM,> 100 µM,45.5 µM,11 µM,31.8 µM,34.5 µM,31.2 µM,2.86 µM,10.5 µM,
COc1ccc2c(c1)CN1C(=N2)CSC1c1cccc(Br)c1 (stereo not given),,> 100 µM,> 100 µM,83.5 µM,> 100 µM,> 100 µM,> 100 µM,64.5 µM,> 100 µM,53.1 µM,83.7 µM
C=CC[C@]1(/C=N/O)CN(S(=O)(=O)CC[Si](C)(C)C)C[C@H]2CC=CC[C@H]21,31.8 µM,27.3 µM,,> 100 µM,51.7 µM,64.5 µM,42.3 µM,54.2 µM,> 100 µM,64.9 µM,> 100 µM
COC(=O)c1csc([C@@H](OC(=O)[C@H](C)[C@H](CCCC(C)(Cl)Cl)OC(=O)c2csc([C@H](O)CO)n2)C(C)C)n1,32.7 µM,,6.65 µM,30.9 µM,26.7 µM,29.7 µM,26.8 µM,11 µM,19.9 µM,24.3 µM,31.8 µM
O=[N+]([O-])c1ccc(CSc2nncc3[nH]cnc23)cc1,> 100 µM,> 100 µM,,> 100 µM,> 100 µM,> 100 µM,,> 100 µM,> 100 µM,> 100 µM,> 100 µM
CC(C)(C)C1CCC(=O)/C(=C/CC2CC(=O)N(c3ccccc3)C(=O)C2)C1 (stereo not given),61.2 µM,29.3 µM,94.5 µM,34.6 µM,70.2 µM,,51.6 µM,53.3 µM,30.2 µM,27.7 µM,31.7 µM
CC(=O)SCCC(NC(=S)Nc1ccccc1)P(=O)(Oc1ccccc1)Oc1ccccc1 (stereo not given),,> 100 µM,> 100 µM,> 100 µM,,> 100 µM,> 100 µM,> 100 µM,> 100 µM,> 100 µM,
CCCCC1(NN=C2CCCCC2)C(=O)N(c2ccccc2)N(c2ccccc2)C1=O,,> 100 µM,> 100 µM,> 100 µM,> 100 µM,> 100 µM,> 100 µM,> 100 µM,> 100 µM,> 100 µM,> 100 µM
Cc1ccc(C(=O)O)c(/C=C2\Cc3ccc(C)cc3C2=O)c1,> 100 µM,> 100 µM,> 100 µM,> 100 µM,> 100 µM,,> 100 µM,> 100 µM,> 100 µM,> 100 µM,> 100 µM
O=c1oc2ccccc2c(Nc2ccc3c(c2)Sc2ccccc2O3)c1[N+](=O)[O-],,> 100 µM,> 100 µM,86.7 µM,38.9 µM,> 100 µM,> 100 µM,58.3 µM,> 100 µM,> 100 µM,32.4 µM
CN(/N=C/c1ccc(C(=O)O)cc1)C1=NCCCCN1,> 100 µM,> 100 µM,,> 100 µM,> 100 µM,> 100 µM,> 100 µM,> 100 µM,> 100 µM,> 100 µM,> 100 µM
O=C1CS(=O)(=O)C(c2cccc(Oc3ccccc3)c2)N1c1ccc(Cl)cc1 (stereo not given),,22.6 µM,> 100 µM,> 100 µM,84.5 µM,> 100 µM,> 100 µM,> 100 µM,> 100 µM,24.6 µM,26.3 µM
O=C1NC(=S)N/C1=C\c1cccs1,,> 100 µM,> 100 µM,> 100 µM,> 100 µM,> 100 µM,> 100 µM,> 100 µM,> 100 µM,> 100 µM,> 100 µM
O=c1[nH]c2cc(C(F)(F)F)ccc2nc1C(F)(F)F,> 100 µM,> 100 µM,,94.2 µM,97.2 µM,> 100 µM,> 100 µM,93.6 µM,> 100 µM,> 100 µM,35.7 µM
N[C@@H]1CCN(c2c(F)cc3c(=O)c(C(=O)O)cn4c3c2Oc2c-4ccc3c2ccc2ccccc23)C1,> 100 µM,,> 100 µM,> 100 µM,> 100 µM,> 100 µM,10.4 µM,,> 100 µM,> 100 µM,> 100 µM
COC(=O)[C@@H]1C[C@H]2OC(=O)CC[C@]2(C)O[C@H]1[C@H]1O[C@@](C)(O)CCC[C@H]1C,,> 50 µM,> 50 µM,> 50 µM,> 50 µM,> 50 µM,> 50 µM,,> 50 µM,> 50 µM,> 50 µM
N#Cc1c(-c2ccc(Cl)cc2)c2c(n(C3OC(CO)C(O)C(O)C3O)c1=S)CCCC2 (stereo not given),> 100 µM,> 100 µM,> 100 µM,> 100 µM,> 100 µM,,> 100 µM,> 100 µM,> 100 µM,,80.3 µM
Cc1nc2ccc(Br)cc2c(=O)n1-c1nnc(C(C)(C)C)s1,,> 10 µM,> 10 µM,> 10 µM,> 10 µM,> 10 µM,> 10 µM,> 10 µM,4.45 µM,> 10 µM,> 10 µM
COc1ccc(-c2c(C(C)=O)c(-c3ccccc3)n(C3OC(CO)C(O)C(O)C3O)c(=S)c2C#N)cc1 (stereo not given),> 100 µM,> 100 µM,,> 100 µM,,> 100 µM,> 100 µM,,> 100 µM,> 100 µM,> 100 µM
Cc1cccc(Cl)c1NCC(O)CN1CCN(C)CC1 (stereo not given),> 100 µM,> 100 µM,> 100 µM,> 100 µM,> 100 µM,,> 100 µM,> 100 µM,> 100 µM,> 100 µM,> 100 µM
Cc1c(-c2ccccc2)cc(O)c2nc3ccccc3n12,> 100 µM,,> 100 µM,> 100 µM,> 100 µM,,> 100 µM,> 100 µM,> 100 µM,> 100 µM,> 100 µM
